From PubChem BioAssay AID328 (DTP/NCI, 2004)
Where “and” joins values, the source holds several entries; their conditions need not be identical. Equal values may be shown once. Inconclusive results and toxic doses are left out.

Test system: BDF1 mice, P388 leukemia ip, median survival T/C
Assay: NCI In Vivo Anticancer Drug Screen. Data for tumor model P388 Leukemia (intraperitoneal) in B6D2F1 (BDF1) mice
Settings: endpoint: median survival time, higher = longer survival
In short: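 In tumour-bearing mice, survival after compound treatment is set against the vehicle group and given as a quotient.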

## COc1cccc(OC)c1C1(O)c2c(OC)cccc2Oc2cccc(OC)c21
dose: 100.0 mg/kg/injection, schedule: Q01DX001 (ip), vehicle: Klucel (hydroxypropylcellulose) (HPC)
  T/C: 95 % of control
dose: 200.0 mg/kg/injection, schedule: Q01DX001 (ip), vehicle: Klucel (hydroxypropylcellulose) (HPC)
  T/C: 100 % of control
dose: 400.0 mg/kg/injection, schedule: Q01DX001 (ip), vehicle: Klucel (hydroxypropylcellulose) (HPC)
  T/C: 104 % of control

## Brc1ccc2c(c1)-c1ccccc1C1=NCCN12
dose: 2.5 mg/kg/injection, schedule: Q01DX009 (ip), vehicle: Klucel (hydroxypropylcellulose) (HPC)
  T/C: 95 % of control
dose: 5.0 mg/kg/injection, schedule: Q01DX009 (ip), vehicle: Klucel (hydroxypropylcellulose) (HPC)
  T/C: 104 % of control
dose: 10.0 mg/kg/injection, schedule: Q01DX009 (ip), vehicle: Klucel (hydroxypropylcellulose) (HPC)
  T/C: 100 % of control
dose: 20.0 mg/kg/injection, schedule: Q01DX009 (ip), vehicle: Klucel (hydroxypropylcellulose) (HPC)
  T/C: 95 % of control

## O=C(CCl)c1ccc(O)c(O)c1
dose: 3.12 mg/kg/injection, schedule: Q01DX009 (ip), vehicle: saline with Tween-80
  T/C: 109 % of control
dose: 4.5 mg/kg/injection, schedule: Q04DX003 (ip), vehicle: saline with Tween-80
  T/C: 104 % of control
dose: 6.25 mg/kg/injection, schedule: Q01DX009 (ip), vehicle: saline with Tween-80
  T/C: 109 % of control
dose: 9.0 mg/kg/injection, schedule: Q04DX003 (ip), vehicle: saline with Tween-80
  T/C: 100 % of control
dose: 12.5 mg/kg/injection, schedule: Q01DX009 (ip), vehicle: Klucel (hydroxypropylcellulose) (HPC)
  T/C: 106 % of control and 120 % of control
dose: 12.5 mg/kg/injection, schedule: Q01DX009 (ip), vehicle: saline with Tween-80
  T/C: 122 % of control
dose: 40.0 mg/kg/injection, schedule: Q01DX001 (ip), vehicle: saline
  T/C: 118 % of control

## CN1CCCC1c1cccnc1 (centres undefined)
dose: 3.13 mg/kg/injection, schedule: Q01DX009 (ip), vehicle: saline
  T/C: 109 % of control
dose: 6.25 mg/kg/injection, schedule: Q01DX009 (ip), vehicle: saline
  T/C: 109 % of control

## c1ccc2c(c1)cc1c3nnnn3ncn21
dose: 50.0 mg/kg/injection, schedule: Q01DX009 (ip), vehicle: saline with Tween-80
  T/C: 106 % of control
dose: 100.0 mg/kg/injection, schedule: Q01DX009 (ip), vehicle: saline with Tween-80
  T/C: 104 % of control
dose: 200.0 mg/kg/injection, schedule: Q01DX009 (ip), vehicle: saline with Tween-80
  T/C: 89 % of control

## COC(=O)[C@]1(C)CCC[C@]2(C)[C@H]3CC4OO[C@@]3(CC[C@H]21)[C@H]1O[C@@]41C(C)C
dose: 100.0 mg/kg/injection, schedule: Q01DX009 (ip), vehicle: other
  T/C: 120 % of control
dose: 100.0 mg/kg/injection, schedule: Q04DX003 (ip), vehicle: other
  T/C: 113 % of control
dose: 132.0 mg/kg/injection, schedule: Q01DX009 (ip), vehicle: other
  T/C: 100 % of control
dose: 200.0 mg/kg/injection, schedule: Q01DX009 (ip), vehicle: other
  T/C: 87 % of control
dose: 200.0 mg/kg/injection, schedule: Q04DX003 (ip), vehicle: other
  T/C: 118 % of control
dose: 400.0 mg/kg/injection, schedule: Q04DX003 (ip), vehicle: other
  T/C: 104 % of control

## CCC(C)C(NC(=O)OCc1ccccc1)C(=O)ON1C(=O)CCC1=O (centres undefined)
dose: 100.0 mg/kg/injection, schedule: Q04DX003 (ip), vehicle: saline with Tween-80
  T/C: 118 % of control
dose: 400.0 mg/kg/injection, schedule: Q04DX003 (ip), vehicle: saline with Tween-80
  T/C: 109 % of control

## CCCCCCCCCC(=O)NC(COC1OC(CO)C(O)C(O)C1O)C(O)c1ccccc1 (centres undefined)
dose: 25.0 mg/kg/injection, schedule: Q01DX009 (ip), vehicle: suspension in saline
  T/C: 98 % of control
dose: 50.0 mg/kg/injection, schedule: Q01DX009 (ip), vehicle: suspension in saline
  T/C: 108 % of control
dose: 100.0 mg/kg/injection, schedule: Q01DX009 (ip), vehicle: suspension in saline
  T/C: 102 % of control

## CC(C)(N)CCC(C)(C)NCCC#N
dose: 50.0 mg/kg/injection, schedule: Q01DX009 (ip), vehicle: water
  T/C: 103 % of control
dose: 100.0 mg/kg/injection, schedule: Q01DX009 (ip), vehicle: water
  T/C: 99 % of control
dose: 100.0 mg/kg/injection, schedule: Q04DX003 (ip), vehicle: water
  T/C: 110 % of control
dose: 200.0 mg/kg/injection, schedule: Q01DX009 (ip), vehicle: water
  T/C: 122 % of control
dose: 200.0 mg/kg/injection, schedule: Q04DX003 (ip), vehicle: water
  T/C: 103 % of control
dose: 400.0 mg/kg/injection, schedule: Q01DX009 (ip), vehicle: water
  T/C: 114 % of control
dose: 400.0 mg/kg/injection, schedule: Q04DX003 (ip), vehicle: water
  T/C: 103 % of control

## Nc1nc(=S)c2[nH]c(N=Nc3ccc(S(N)(=O)=O)cc3)nc2[nH]1
dose: 12.5 mg/kg/injection, schedule: Q04DX003 (ip), vehicle: Klucel (hydroxypropylcellulose) (HPC)
  T/C: 166 % of control
dose: 25.0 mg/kg/injection, schedule: Q04DX003 (ip), vehicle: Klucel (hydroxypropylcellulose) (HPC)
  T/C: 156 % of control
